For 41 compounds, IC50 and IC90 results are on record in ChEMBL document CHEMBL4483862, “Open-source discovery of chemical leads for next-generation chemoprotective antimalarials” (2018).

The subject of this assay is Plasmodium berghei. The assay is described as follows: Luciferase/luciferin-expressing antifolate-resistant parasites were used to infect a culture of HepG2 cells that were pre-incubated with compounds. Infected hepatocytes emit light due to the luciferase reaction. Assay results are presented as the percent inhibition of light emission compared to control. […]. Format: functional. The settings on record: sporozoite; for IC90: read-out: LUCIFERASE INFECTION ASSAY - IC90.

The mark [1] stands for this setting: read-out: LUCIFERASE INFECTION ASSAY - IC50.

What is called IC50 is the concentration needed to halve the response being measured. As usually defined, the IC90 is the concentration needed for an effect of 90%. Regarding `COc1ccc(CNC(N)=O)cc1`, the IC90 is above 18.3 µM. The IC50 under setting [1] is above 18.3 µM.

For the compound `Cc1cccc(C)c1NC(=O)CSc1nc(=O)c2c(C)c(-c3ccccc3)sc2[nH]1`, the IC90 is above 10 µM. Moreover, under setting [1], the concentration for half-maximal inhibition (IC50) was above 10 µM.

For `N#Cc1c(N)nc2c(c1N)C(C(C#N)C#N)c1cc(Br)ccc1O2` (configuration not stated), the IC90 is above 8.66 µM. Moreover, under “FFLUC_HILL_SLOPE 1.21, FFLUC_R_SQUARED 0.243, read-out: LUCIFERASE INFECTION ASSAY - IC50”, the IC50 was above 8.66 µM.

Take `COc1cccc(Nc2nccc3nc(-c4cccc(C)c4)[nH]c23)c1`: the IC90 is above 10 µM. For the same compound, the IC50 (PBLUC_HILL_SLOPE 2.7, PBLUC_R_SQUARED 0.647, read-out: LUCIFERASE INFECTION ASSAY - IC50) is 6.02 µM.

Consider `O=C(Nc1ccccc1C(=O)Nc1nnc(C(F)(F)F)s1)c1ccccc1`, for which the IC90 is 1.89 µM. For the same compound, the IC50 (HEPG2TOX_HILL_SLOPE 6.74, HEPG2TOX_R_SQUARED 0.749, PBLUC_HILL_SLOPE 2.08, PBLUC_R_SQUARED 0.449, read-out: LUCIFERASE INFECTION ASSAY - IC50) came to 0.658 µM.

Consider `O=C(COc1ccc(F)cc1)Nc1ccc2c(=O)c3cccc(Cl)c3oc2c1`, for which the IC90 was above 8.3 µM. Further, under setting [1], the IC50 was above 8.3 µM.

As for `O=C(Nc1cccc(Cl)c1)n1nccc1-c1ccc(-c2cccs2)s1`, the IC90 is above 8.55 µM. Also, under setting [1], the IC50 was above 8.55 µM.

Take `Cc1[nH]c2ccccc2c1-c1nc(Nc2ccc3c(c2)OCCO3)sc1C`: the IC90 was above 10 µM. Besides, the IC50 under setting [1] was above 10 µM.

Turning to `CCC(NC(=O)NCc1ccccc1S(=O)(=O)N1CCCCC1)c1ccc(Cl)cc1` (configuration not stated), the IC90 is above 10 µM. In addition, under “PBLUC_HILL_SLOPE 1.14, PBLUC_R_SQUARED 0.117, read-out: LUCIFERASE INFECTION ASSAY - IC50”, the IC50 was above 10 µM.

In the case of `Cc1cc(NC(=O)N2CCN(Cc3cccc4ccccc34)CC2)no1`, the IC90 is above 10 µM. In addition, the IC50 (PBLUC_HILL_SLOPE 2.02, PBLUC_R_SQUARED 0.015, read-out: LUCIFERASE INFECTION ASSAY - IC50) is above 10 µM.

In the case of `CC(Cc1cccs1)N(Cc1ccc(Cl)cc1)C(=O)c1cc(S(=O)(=O)N2CCOCC2)c(Cl)cc1Cl` (configuration not stated), the IC90 is above 10 µM. The IC50 (HEPG2TOX_HILL_SLOPE 6.93, HEPG2TOX_R_SQUARED 0.0438, read-out: LUCIFERASE INFECTION ASSAY - IC50) is above 10 µM.

For `CO/N=C1\CCCc2c(C(=O)N/N=C/c3ccc(Cl)cc3)sc(SC)c21`, the IC90 was 1.51 µM. Further, the IC50 (HEPG2TOX_HILL_SLOPE 0.585, HEPG2TOX_R_SQUARED 0.788, PBLUC_HILL_SLOPE 2.34, PBLUC_R_SQUARED 0.687, read-out: LUCIFERASE INFECTION ASSAY - IC50) is 0.59 µM.

Turning to `COc1ccc2ccccc2c1/C=N/Nc1ncc(C(F)(F)F)cc1Cl`, the IC90 is above 10 µM. Further, the IC50 (HEPG2TOX_HILL_SLOPE 1.11, HEPG2TOX_R_SQUARED 0.987, read-out: LUCIFERASE INFECTION ASSAY - IC50) is above 10 µM.

In the case of `N#C/C(=C\c1ccc2c(c1)OCCO2)c1ccc(C(F)(F)F)cn1`, the IC90 is above 10 µM. In addition, under setting [1], the IC50 was above 10 µM.

For the compound `CCn1c(-c2ccccc2)c(C(=O)COC(=O)/C=C/c2ccco2)c2ccccc21`, the IC90 is above 10 µM. For the setting “HEPG2TOX_HILL_SLOPE 1.75, HEPG2TOX_R_SQUARED 0.877, PBLUC_HILL_SLOPE 15.9, PBLUC_R_SQUARED 0.384, read-out: LUCIFERASE INFECTION ASSAY - IC50”, the IC50 turned out to be 9.6 µM.

Regarding `O=C(c1ccc(-c2ccc3c(c2)OCCO3)s1)N1CCc2ccccc21`, the IC90 is above 10 µM. Besides, the IC50 under setting [1] is above 10 µM.

Regarding `Clc1ccccc1/C=N/Nc1nc(-c2cc(-c3ccccc3)no2)cs1`, the IC90 was above 8.66 µM. Moreover, under “PBLUC_HILL_SLOPE 1.1, PBLUC_R_SQUARED 0.687, read-out: LUCIFERASE INFECTION ASSAY - IC50”, the IC50 came to 6.48 µM.

`CC1CC(C)CN(C(=O)c2ccccc2C(=O)OCC(=O)NCc2cccs2)C1` (configuration not stated): the IC90 was above 10 µM. For the same compound, the IC50 under setting [1] was above 10 µM.

`FC(F)(F)c1nc2ccccc2nc1-n1nccc1-c1ccc(Cl)cc1`: the IC90 was above 8.81 µM. The IC50 (FFLUC_HILL_SLOPE 16.3, FFLUC_R_SQUARED 0.637, HEPG2TOX_HILL_SLOPE 7.13, HEPG2TOX_R_SQUARED 0.448, PBLUC_HILL_SLOPE 3.24, PBLUC_R_SQUARED 0.732, read-out: LUCIFERASE INFECTION ASSAY - IC50) came out at 5.14 µM.

For the compound `CC(=O)c1cccc(-c2cnc3cnc(-c4cccnc4)cn23)c1`, the IC90 is above 10.5 µM. In addition, the IC50 (PBLUC_HILL_SLOPE 3.62, PBLUC_R_SQUARED 0.754, read-out: LUCIFERASE INFECTION ASSAY - IC50) was found to be 6.77 µM.

For `Cc1nc(C(=O)NNC(=O)c2ccc(Cl)cc2)cs1`, the IC90 is above 11.2 µM. In addition, under “PBLUC_HILL_SLOPE 2.52, PBLUC_R_SQUARED 0.734, read-out: LUCIFERASE INFECTION ASSAY - IC50”, the IC50 was above 11.2 µM.

For `CNc1nc2cnc(Nc3cccc(OC(F)(F)F)c3)cc2n1CCOC`, the IC90 is above 10 µM. Under “HEPG2TOX_HILL_SLOPE 6.78, HEPG2TOX_R_SQUARED 0.0669, read-out: LUCIFERASE INFECTION ASSAY - IC50”, the IC50 was above 10 µM.

With `COc1cc(Nc2ccn3ncc(-c4ccc(OC(F)(F)F)cc4)c3n2)cc(OC)c1OC`, the IC90 turned out to be 5.74 µM. Moreover, the IC50 (PBLUC_HILL_SLOPE 5.07, PBLUC_R_SQUARED 0.236, read-out: LUCIFERASE INFECTION ASSAY - IC50) was determined as 3.72 µM.

As for `COc1cc2c(C#N)c(N3CCc4ccccc4C3)nc(N)c2c(N)n1`, the IC90 was above 10 µM. Under setting [1], the IC50 is above 10 µM.

As to `OCCNc1ncnc2c1c(-c1ccccc1)cn2-c1ccc(Cl)cc1`, the IC90 was above 10 µM. Besides, under “FFLUC_HILL_SLOPE 35.7, FFLUC_R_SQUARED 0.282, read-out: LUCIFERASE INFECTION ASSAY - IC50”, the IC50 is above 10 µM.

Turning to `CC1CCc2sc(C(=O)N/N=C/c3ccc(Cl)cc3Cl)cc2C1` (configuration not stated), the IC90 is 5.01 µM. In addition, for the setting “HEPG2TOX_HILL_SLOPE 2.35, HEPG2TOX_R_SQUARED 0.954, PBLUC_HILL_SLOPE 8.15, PBLUC_R_SQUARED 0.258, read-out: LUCIFERASE INFECTION ASSAY - IC50”, the half-maximal inhibitory concentration (IC50) is 3.82 µM.

As for `CC(C)c1ccc(-c2cnc3sc(NCc4ccncc4)nn23)cc1`, the IC90 was above 9.44 µM. Besides, where the note is “FFLUC_HILL_SLOPE 6.11, FFLUC_R_SQUARED 0.0312, HEPG2TOX_HILL_SLOPE 0.148, HEPG2TOX_R_SQUARED 0.0475, read-out: LUCIFERASE INFECTION ASSAY - IC50”, the IC50 is above 9.44 µM.

With `CCOC(=O)c1ccc(Oc2nc3ccccc3nc2C(C#N)C(=O)OC)cc1` (configuration not stated), the IC90 was 7.6 µM. The IC50 (PBLUC_HILL_SLOPE 5.75, PBLUC_R_SQUARED 0.407, read-out: LUCIFERASE INFECTION ASSAY - IC50) was found to be 5.19 µM.

With `CCN1C(=O)N(Cc2cccc(OC)c2)C(=O)C12CCN(Cc1ccc3c(c1)Cc1ccccc1-3)CC2`, the IC90 was above 6.66 µM. Also, the half-maximal inhibitory concentration (IC50) (HEPG2TOX_HILL_SLOPE 11.9, HEPG2TOX_R_SQUARED 0.897, PBLUC_HILL_SLOPE 2.37, PBLUC_R_SQUARED 0.639, read-out: LUCIFERASE INFECTION ASSAY - IC50) worked out at 3.29 µM.

As for `CCSc1nc2scc(C(F)(F)F)n2c(=O)c1C(=O)N1CC(C)CC(C)C1` (configuration not stated), the IC90 was above 7.87 µM. Besides, under setting [1], the IC50 is above 7.87 µM.

Regarding `Cc1nn(CC(=O)NCCCN2c3ccccc3Sc3ccccc32)c(C)c1[N+](=O)[O-]`, the IC90 is above 10 µM. The IC50 under setting [1] is above 10 µM.

For `CN(CC(=O)Nc1c(Cl)cccc1Cl)C(=O)c1ccccc1-c1nc2ccccc2s1`, the IC90 worked out at 6.97 µM. Moreover, under “FFLUC_HILL_SLOPE 17.7, FFLUC_R_SQUARED 0.2, PBLUC_HILL_SLOPE 167, PBLUC_R_SQUARED 0.153, read-out: LUCIFERASE INFECTION ASSAY - IC50”, the IC50 was determined as 6.87 µM.

On to `CCCOc1ccccc1NC(=O)c1cnc2c(c1)c(=O)[nH]c(=O)n2C`, for which the IC90 is above 10 µM. Moreover, the IC50 under setting [1] is above 10 µM.

Consider `O=C1Nc2ccccc2/C1=C/c1ccc(C(F)(F)F)cc1Cl`, for which the IC90 was above 10.2 µM. Moreover, the IC50 under setting [1] was above 10.2 µM.

As to `Cc1cnc(NC(=O)C2CCN(S(=O)(=O)c3ccc(Cl)cc3)CC2)s1`, the IC90 was determined as 3.13 µM. Also, the IC50 (PBLUC_HILL_SLOPE 19, PBLUC_R_SQUARED 0.695, read-out: LUCIFERASE INFECTION ASSAY - IC50) turned out to be 2.79 µM.

Turning to `N=C(NOC(=O)Nc1ccc(OC(F)(F)F)cc1)c1cnccn1`, the IC90 was above 9.67 µM. Besides, the IC50 under setting [1] is above 9.67 µM.

As to `COc1ccc(C2CC(C)=NN2c2nc(-c3ccc(F)cc3)cs2)cc1OC` (configuration not stated), the IC90 was above 8.3 µM. For the same compound, the IC50 (PBLUC_HILL_SLOPE 2.46, PBLUC_R_SQUARED 0.655, read-out: LUCIFERASE INFECTION ASSAY - IC50) is 4.62 µM.

For `Cc1cc(C)c(C(=O)C2CCN(C(=O)c3cccs3)CC2)c(C)c1`, the IC90 was above 9.66 µM. Further, the IC50 (PBLUC_HILL_SLOPE 1.97, PBLUC_R_SQUARED 0.657, read-out: LUCIFERASE INFECTION ASSAY - IC50) was found to be 3.99 µM.

As to `CNc1nc2cnc(Nc3cccc(Cl)c3)cc2n1-c1cc(OC)c(OC)c(OC)c1`, the 90% effect concentration (IC90) was found to be 4.49 µM. The IC50 (PBLUC_HILL_SLOPE 3.01, PBLUC_R_SQUARED 0.505, read-out: LUCIFERASE INFECTION ASSAY - IC50) came to 2.17 µM.

As to `Cc1nc(NCCCn2ccnc2)c2c(-c3cccs3)csc2n1`, the IC90 was above 10 µM. Besides, the half-maximal inhibitory concentration (IC50) (PBLUC_HILL_SLOPE 2.38, PBLUC_R_SQUARED 0.267, read-out: LUCIFERASE INFECTION ASSAY - IC50) was determined as 6.39 µM.

On to `Cc1ccc(F)c(Nc2ncnc3sccc23)c1`, for which the IC90 is above 10 µM. For the same compound, the IC50 under setting [1] is above 10 µM.
